Measured values published in the supplement of paper PMC10933113.
± gives the uncertainty stated by the source.

Tests used:
[1] = test system: KeratinoSens (HaCaT ARE-luciferase) cells; experiment: AC50 of Nrf2/ARE luciferase induction; higher = less potent; conditions: exposure time: 24 h
[2] = test system: THP-1; experiment: efficacy of IL-8 induction relative to DMSO (% activity); higher = stronger induction; conditions: exposure time: 18 h
[3] = test system: lysine peptide Ac-RFAAKAA-COOH; experiment: efficacy of lysine peptide change (negative = depletion) (% activity); higher = less depletion; conditions: incubation time: 24 h
[4] = test system: cysteine peptide Ac-RFAACAA-COOH; experiment: efficacy of cysteine peptide change (negative = depletion) (% activity); higher = less depletion; conditions: incubation time: 24 h
[5] = test system: KeratinoSens (HaCaT ARE-luciferase) cells; experiment: efficacy of ARE luciferase induction relative to DMSO (% activity over DMSO); higher = stronger induction; conditions: exposure time: 24 h
[6] = test system: cysteine peptide Ac-RFAACAA-COOH; experiment: AC50 of cysteine peptide concentration-response (direction given by sign of efficacy); higher = less potent; conditions: incubation time: 24 h
[7] = test system: KeratinoSens (HaCaT ARE-luciferase) cells; experiment: cytotoxicity AC50 (CellTiter-Fluor viability); higher = less cytotoxic; conditions: exposure time: 24 h

SMILES | AC50 of Nrf2/ARE luciferase induction [1] | efficacy of IL-8 induction [2] | efficacy of lysine peptide change [3] | efficacy of cysteine peptide change [4] | efficacy of ARE luciferase induction [5] | AC50 [6] | cytotoxicity AC50 [7]
C=CC(=O)OCCOC(=O)CCC(=O)O [4-[2-(Acryloyloxy)ethoxy]-4-oxobutanoic acid] | 61.3 µM | 0 | -2.94 ± 13 | -111 ± 7.3 | 87.4 ± 29 | 34.1 ± 14 µM | 
COc1ccc2cc(CCC(C)=O)ccc2c1 [Nabumetone] | 3.98 µM | 0.27 ± 5.5 | -2.87 ± 17 | -3.44 ± 6 | 124 ± 44 |  | 7.94 µM
Cc1c2ccccc2c(C)c2c1ccc1ccccc12 [7,12-Dimethylbenzanthracene] | 29.6 µM | 129 ± 15 | -47.7 ± 5.3 | -86.2 ± 6.7 | 69 ± 29 | 19.4 ± 11 µM | 57 ± 12 µM
Cc1ccc2c(c1N)C(=O)c1ccccc1C2=O [1-Amino-2-methylanthraquinone] | 37.8 µM | 0 | -8.55 ± 7.6 | -101 ± 4.8 | 55.7 ± 35 | 24.3 ± 3.4 µM | 
Nc1ccc(Cl)cc1N [4-Chloro-1,2-diaminobenzene*] | 13.7 µM | 10.3 ± 2.3 | -6.76 ± 18 | -99.1 ± 6 | 70 ± 21 | 5.4 ± 2.3 µM | 
O=C(/C=C/C=C/c1ccc2c(c1)OCO2)N1CCCCC1 [Piperine] | 29.1 µM | 13.7 ± 14 | 1.32 ± 18 | -72.8 ± 22 | 76 ± 12 | 80.8 ± 18 µM | 44 ± 11 µM
COc1ccc(-c2cc(=S)ss2)cc1 [Anethole trithione] | 22 µM | 38.6 ± 10 | -0.11 ± 7.8 | -84.1 ± 12 | 96.9 ± 78 |  | 34.2 ± 2.2 µM
O=c1ssc(Cl)c1Cl [4,5-Dichloro-3H-1,2-dithiol-3-one] | 21.3 µM | 24.5 ± 3.5 | -36.4 ± 2.7 | -102 ± 9.4 | 92.3 ± 9.5 | 1.4 ± 0.39 µM | 37.8 ± 11 µM
CC(C)=CC1C(C(=O)OCc2coc(Cc3ccccc3)c2)C1(C)C (stereo not given) [Resmethrin] | 46.5 µM | 4.15 ± 7.2 | -58 ± 4.8 | -122 ± 8.3 | 69.7 ± 30 | 58.1 ± 19 µM | 
CCCCOCN(C(=O)CCl)c1c(CC)cccc1CC [Butachlor] | 70.8 µM | 22.1 ± 11 | 2.3 ± 11 | -24.1 ± 21 | 324 ± 31 |  | 41.4 ± 2.8 µM
O=C(CCl)c1ccccc1 [2-Chloroacetophenone] | 35.5 µM | 29.4 ± 7.2 | 9.03 ± 16 | -94.1 ± 28 | 327 ± 92 | 49.4 ± 34 µM | 57 ± 12 µM
C=CC(=O)OCC(COC(=O)C=C)(COC(=O)C=C)COC(=O)C=C [Pentaerythritol tetraacrylate] | 15.8 µM | 23.5 ± 10 | -27.5 ± 6 | -102 ± 14 | 118 ± 5.8 | 3.11 ± 0.76 µM | 25.3 ± 4.1 µM
CCOc1ccc2nc3cc(N)ccc3c(N)c2c1 [Ethacridine lactate monohydrate] | 29.4 µM | 13.6 ± 2.8 | 107 ± 12 | -93.5 ± 7.5 | 86.2 ± 47 | 0.29 ± 0.07 µM | 
c1ccc2cc3c(ccc4ccccc43)cc2c1 [Benz(a)anthracene] | 40 µM | 32.1 ± 4.5 | -36.8 ± 14 | -97.8 ± 2.9 | 126 ± 33 | 12.2 ± 1.7 µM | 
Nc1ccc(N)cc1 [1,4-Benzenediamine] | 39.8 µM | 19.1 ± 5.7 | 61 ± 17 | -107 ± 20 | 54.5 ± 20 | 9.58 ± 2.8 µM | 
O=C(CCl)CCl [1,3-Dichloropropanone] | 40.9 µM | 22.5 ± 6.2 | -12.5 ± 16 | -107 ± 9.9 | 84.2 ± 64 | 35.6 ± 4.1 µM | 
Nc1ccccc1N [1,2-Phenylenediamine*] | 34.4 µM | 4.93 ± 5.2 | 7.79 ± 12 | -90.9 ± 5 | 88 ± 31 | 1.06 ± 0.49 µM | 
C/C=C/C=C/C=O [2,4-Hexadienal] | 73.7 µM | 12.8 ± 12 | -110 ± 23 | -129 ± 9.8 | 427 ± 46 | 17 ± 5 µM | 
CN(C)S(=O)(=O)N(SC(F)(Cl)Cl)c1ccccc1 [Dichlofluanid] | 15.8 µM | 19.9 ± 4.2 | 62.1 ± 23 | -92.1 ± 5 | 169 ± 52 | 1.96 ± 0.48 µM | 27.2 ± 1.8 µM
O=C(Nc1cccc(Cl)c1)OCC#CCCl [Barban] | 35.5 µM | 34.1 ± 7.5 | 33.7 ± 4.6 | -52.5 ± 14 | 101 ± 30 |  | 55.2 ± 14 µM
CCOCN(C(=O)CCl)c1c(C)cccc1CC [Acetochlor] | 53.6 µM | 8.32 ± 8.4 | 79.9 ± 12 | 11.4 ± 11 | 98.8 ± 68 |  | 55.2 ± 14 µM
N#C/C=C/C#N [Fumaronitrile] | 32.9 µM | 8.38 ± 7.6 | -12.4 ± 34 | -104 ± 7.3 | 193 ± 39 | 3.3 ± 0.42 µM | 23.1 ± 6.4 µM
CC(C)CCCCCCCOC(=O)c1ccc(C(=O)OCCCCCCCC(C)C)c(C(=O)OCCCCCCCC(C)C)c1 [Triisodecyl trimellitate] | 42.2 µM | 13.5 ± 0.9 | -10.8 ± 18 | -22.8 ± 5 | 72.5 ± 41 | 19.9 µM | 
CN(C)c1ccc(SC#N)cc1 [4-(Dimethylamino)phenylthiocyanate] | 34.2 µM | 87.8 ± 8.9 | 1.57 ± 29 | -101 ± 5.4 | 73.3 ± 36 | 3.84 ± 0.25 µM | 65 ± 18 µM
c1ccc(CCNc2nc(-c3ccccc3)cs2)cc1 [Fanetizole] | 33.2 µM | 45.8 ± 14 | 35 ± 23 | -113 ± 17 | 119 ± 37 | 40 ± 4.6 µM | 41.4 ± 2.8 µM
CCCCNC(=O)OCC#CI [Carbamic acid, butyl-, 3-iodo-2-propynyl ester] | 27.3 µM | 20.3 ± 4.5 | 64.6 ± 18 | -92.5 ± 3.8 | 133 ± 50 | 1.05 ± 0.13 µM | 37.1 ± 4.7 µM
COc1ccc(C(=O)/C(Br)=C\C(=O)O)cc1 [Cytembena] | 37.1 µM | 33.2 ± 4.5 | 12.2 ± 14 | -95.5 ± 18 | 417 ± 100 | 79.8 ± 9.2 µM | 57 ± 12 µM
c1ccc(Nc2ccc(Nc3ccccc3)cc2)cc1 [N,N'-Diphenyl-p-phenylenediamine] | 22.5 µM | 9.77 ± 9.9 | -22.2 ± 3.3 | -119 ± 12 | 54.7 ± 14 | 23 ± 18 µM | 55.2 ± 14 µM
